Reference: patent US20170326356A1, “METHODS FOR TREATING PSYCHIATRIC DISORDERS” (priority 2016, published 2017)
“Also recorded” adds a separate entry of the source.

Columns and labels:
[1] = system: offspring of pregnant dams; assay: Analysis of cortical patches (absence of SATB2 or TBR1 expression) in offspring after maternal immune activation; format: in vivo, mice
Protocol: (§1) Mice were mated overnight and females were checked daily for the presence of seminal plugs, noted as embryonic day 0.5 (E0.5). On E12.5, pregnant female mice were weighed and injected with a single dose (20 mg/kg i.p.) of poly(I:C) (Sigma Aldrich, USA) or PBS vehicle. Each dam was returned to its cage and left undisturbed until the birth of its litter. All pups remained with the mother until weaning on postnatal day 21 (P21), at which time mice were group housed at a maximum of 5 per cage with same-sex littermates. For checking the effect of poly(I:C) administration at different time points during pregnancy, the present inventors injected poly(I:C) into pregnant dams on E12.5, E15.5, or E18.5.
For cryosectioning, animals were intracardially perfused, and the brain was dissected out, fixed with 4% paraformaldehyde in PBS overnight at 4° C., and cryoprotected in 30% sucrose solution. The left hemisphere was marked with a needle and the sections were coronally sliced at 40 μm using a cryostat (Leica, USA). For vibratome sectioning, animals were intracardially perfused, and the brain was fixed with 4% paraformaldehyde in PBS overnight at 4° C. The brains were coronally sliced at 50 μm with a Leica VT1000S vibratome (Leica, USA).
Slices were permeabilized with blocking solution containing 0.4% Triton X-100 and 2% goat serum in PBS for 1 h at room temperature (RT) and then incubated with anti-rabbit-TBR1 (ab31940, Abcam, USA), anti-mouse-SATB2 (ab51502, Abcam, USA), anti-rabbit-PV (PV27, Swant, Switzerland), anti-rabbit-VIP (20077, Immunostar, USA), anti-mouse-NeuN (MAB377X, Millipore, USA), or anti-rabbit-c-Fos (sc-7270, Santa Cruz, USA) antibodies overnight at 4° C. […]
Cortical patches were identified by the absence of SATB2 or TBR1 expression. Spatial locations of the cortical patches were determined based on their distance from the midline of the brain and the layer structures of the cortex. […] The size of the cortical patches was calculated using Zen software (Carl Zeiss, Germany).

[2] = system: offspring of pregnant dams; assay: Ultrasonic vocalizations of pups; format: in vivo, mice
Protocol: as §1
On postnatal day 9, mouse pup ultrasonic vocalizations (USVs) were detected for 3 min using an Ultra-Sound Gate CM16/CMPA microphone (AviSoft, Germany) and SAS Prolab software (AviSoft, Germany) in a sound attenuation chamber under stable temperature (19-22° C.) and light control (15 lux).

In the case of “polyinosinic:polycytidylic acid [poly(I:C)]”, the “offspring with cortical patches in the S1” value (from here on “offspring”) ([1]; dams injected at E12.5, 20 mg/kg i.p.) is reported as 77%, the “offspring” value ([1]; dams injected at E15.5) is reported as 13% and the “offspring” value ([1]; dams injected at E18.5) is reported as “none”. The “USV calls made by pups upon separation from mothers at P9” value ([2]; dams injected at E12.5, versus PBS offspring) was “emitted more ultrasonic vocalization (USV) calls” and the “USV calls made by pups upon separation from mothers at P9” value ([2]; dams injected at E15.5 or E18.5) was “This finding was not observed; also recorded: such an increase was not observed”.
